Results on ten compounds are retold here after US20240316038A1, “APOL1 INHIBITORS AND METHODS OF USE” (Maze Therapeutics, Inc., priority 2021, published 2024).

Experiment [1] addresses T1, APOL1 G2 (Homo sapiens, UniProt O14791, DEL388-389).
T1 construct: expressed in transfected cells; host or cells: HEK293 T-REx clonal lines: HEK T-REx/GCaMP6f/APOL1 G2 K6.3 in A1, HEK293/T-REx APOL1 G2/clone #2 in A2
T1 sequence (O14791 with tags, fused parts or gaps DEL388-389): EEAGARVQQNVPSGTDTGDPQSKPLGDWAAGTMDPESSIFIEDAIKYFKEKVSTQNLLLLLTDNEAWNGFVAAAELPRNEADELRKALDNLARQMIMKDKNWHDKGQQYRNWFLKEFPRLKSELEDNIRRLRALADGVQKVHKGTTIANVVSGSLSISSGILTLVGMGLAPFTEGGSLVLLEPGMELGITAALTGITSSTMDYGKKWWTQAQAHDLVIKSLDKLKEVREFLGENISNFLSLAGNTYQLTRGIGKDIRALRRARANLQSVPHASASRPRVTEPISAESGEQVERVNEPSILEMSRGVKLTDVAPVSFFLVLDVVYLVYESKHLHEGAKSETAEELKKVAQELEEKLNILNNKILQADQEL
The experiment can be described thus: APOL1 calcium transport inhibition assay (GCaMP6f calcium influx, FLIPR) in HEK T-REx/GCaMP6f/APOL1 G2 K6.3 cells. The class given is cell-based. To be noted: inhibition of APOL1-mediated calcium influx; geometric mean of at least 2 assay runs, † = single assay run (technical duplicate). The procedure, abridged:
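HEK293 cells stably expressing GCaMP6f, APOL1 G2 induced 6 h with doxycycline (20 ng/mL added), then washed into Ca2+-free Tyrode's buffer pH 7.4. Compounds (8-point dose response) preincubated 10 min at room temperature, then Ca2+ injected to 5 mM final and influx read on FLIPR. AC50 reported as geometric mean of runs.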

The target in experiment [2] is T1, APOL1 G2. The experiment can be described thus: Rescue of HEK293 cell death caused by overexpression of APOL1 (CellTiter-Glo luminescence), HEK293/T-REx APOL1 G2/clone #2. In kind it is cell-based. The note with it: reversal of cell death caused by overexpression of APOL1; geometric mean of at least 2 assay runs, † = single assay run (technical duplicate). The procedure, abridged:
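Rescue EC50s come from four-parameter logistic fits, geometric mean of at least 2 runs on separate days, each in duplicate. Readout: CellTiter-Glo luminescence after 17 h at 37 °C of 5,000 HEK293/T-REx APOL1 G2 clone #2 cells/well, with 6 ng/mL doxycycline to induce APOL1 and 3-fold serial compound dilutions in 0.5% DMSO.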

Molecules are shown by their SMILES.

For the compound `CS(=O)(=O)c1ccc(OC[C@@H]2CN(CCc3cc(Cl)cc(Cl)c3)CCN2)cc1` [Compound 190, (3S)-1-[2-(3,5-dichlorophenyl)ethyl]-3-[(4-methanesulfonylphenoxy)methyl]piperazine], at APOL1 G2 [1], the AC50 (commonly the concentration giving half of the maximal activity seen) was 0.17 µM. Further, the EC50 (usually the concentration needed to bring the measured effect to its halfway point) on APOL1 G2 [2] was found to be 0.291 µM.

For the compound `COc1ccc(Cl)cc1CCN1CCN[C@H](COc2ccc(S(C)(=O)=O)cc2)C1` [Compound 191, (3S)-1-[2-(5-chloro-2-methoxyphenyl)ethyl]-3-[(4-methanesulfonylphenoxy)methyl]piperazine], the half-maximal activity concentration (AC50) on APOL1 G2 [1] turned out to be 0.228 µM. The EC50 at APOL1 G2 [2] was 0.663 µM.

`CS(=O)(=O)c1ccc(OC[C@@H]2CN(CCc3cc(Cl)ccc3OC(F)F)CCN2)cc1` [Compound 192, (3S)-1-{2-[5-chloro-2-(difluoromethoxy)phenyl]eth-yl}-3-[(4-methanesulfonylphenoxy)methyl]piperazine]: on APOL1 G2 [1], the AC50 is 0.26 µM. In addition, the EC50 on APOL1 G2 [2] amounted to 0.915 µM.

In the case of `CS(=O)(=O)c1ccc(OC[C@@H]2CN(CCc3cc(C#N)cc(C(F)(F)F)c3)CCN2)cc1` [Compound 193, 3-{2-[(3S)-3-[(4-methanesulfonylphenoxy)methyl]piperazin-1-yl]ethyl}-5-(trifluoromethyl)benzonitrile], on APOL1 G2 [1], the concentration at half-maximal activity (AC50) was determined as 1.45 µM. Further, the EC50 at APOL1 G2 [2] was determined as 0.782 µM.

With `C[C@@H]1CN(CCc2cc(Cl)cc(C#N)c2)C[C@H]1COc1ccc(S(C)(=O)=O)cc1` [Compound 194, 3-chloro-5-{2-[(3S,4S)-3-[(4-methanesulfonylphenoxy)methyl]-4-methylpyrrolidin-1-yl]ethyl}benzonnitrile], at APOL1 G2 [1], the AC50 was determined as 0.151 µM. The EC50 on APOL1 G2 [2] came to 0.107 µM.

On to `C[C@@H]1CN(CCc2cc(F)cc(C#N)c2)C[C@H]1COc1ccc(S(C)(=O)=O)cc1` [Compound 195, 3-fluoro-5-{2-[(3S,4S)-3-[(4-methanesulfonylphenoxy)methyl]-4-methylpyrrolidin-1-yl]ethyl}benzonitrile], for which the AC50 on APOL1 G2 [1] was determined as 0.236 µM. The EC50 at APOL1 G2 [2] is 0.226 µM.

For the compound `C[C@@H]1CN(CCc2cc(Br)cc(C#N)c2)C[C@H]1COc1ccc(S(C)(=O)=O)cc1` [Compound 196, 3-bromo-5-{2-[(3S,4S)-3-[(4-methanesulfonylphenoxy)methyl]-4-methylpyrrolidin-1-yl]ethyl}benzonitrile], the AC50 on APOL1 G2 [1] is 0.108 µM. The EC50 on APOL1 G2 [2] stood at 0.11 µM.

As for `Cc1ccc(Cl)cc1CCN1CCN[C@H](COc2ccc(S(C)(=O)=O)cc2)C1` [Compound 197, (3S)-1-[2-(5-chloro-2-methylphenyl)ethyl]-3-[(4-methanesulfonylphenoxy)methyl]piperazine], on APOL1 G2 [1], the half-maximal activity concentration (AC50) was 0.334 µM. Further, the EC50 on APOL1 G2 [2] was 0.369 µM.

On to `Cc1cc(C#N)cc(CCN2C[C@@H](COc3ccc(S(C)(=O)=O)cc3)[C@H](C)C2)c1` [Compound 198, 3-{2-[(3S,4S)-3-[(4-methanesulfonylphenoxy)methyl]-4-methylpyrrolidin-1-yl]ethyl}-5-methylbenzonitrile], for which, on APOL1 G2 [1], the AC50 worked out at 0.197 µM. Also, the EC50 on APOL1 G2 [2] was found to be 0.0715 µM.

In the case of `CC1CNC(COc2ccc(S(C)(=O)=O)cc2)CN1CCc1cccc(Cl)c1` (centres unmarked) [Compound 211, 1-[2-(3-chlorophenyl)ethyl]-5-[(4-methanesulfonylphenoxy)methyl]-2-methylpiperazine], at APOL1 G2 [1], the AC50 was < 0.118 µM. Also, the EC50 on APOL1 G2 [2] worked out at 1.36 µM.
